From publication PMC7672424 (Nucleic Acids Research, 2020)

Test system: γH2AX foci in A549 cells
Experiment: Immunofluorescence of γH2AX and TRF2 foci
Assay type: cell-based, human
Conditions: A549, 1.5 μM, 24 h
Procedure: The cells (5 × 10^4 cells) were seeded on 35-mm glass-bottomed dishes and grown for 24 h for attachment. Then old medium was replaced by fresh DMEM containing 1.5 μM BMPQ-1 and incubated for 24 h. After washed three times with PBS buffer, the cells were fixed in 4% paraformaldehyde/PBS for 15 min and then permeabilized with 0.3% Triton-X 100/PBS at 37°C for 20 min. Then the cells were blocked with 5% BSA/PBS at 37°C for 1 h. Finally, the cells were incubated with primary antibodies at 37°C for 3 h. After that, the cells were washed six times with blocking buffer, and were then incubated with secondary antibodies at 37°C for 3 h. Finally, the cells were washed six times with PBS buffer again. The digital images were recorded using a confocal laser scanning microscopy (Olympus FV1000) and analyzed with ImageJ software. One hundred nuclei were counted in each group. […]
Figure 2. […] (B) Quantification of the number of γH2AX foci per nucleus in A549 cells treated with or without BMPQ-1. (C) Quantification of the colocalization of γH2AX and TRF2 per nucleus in A549 cells treated with or without BMPQ-1. […] (E) Quantification of the number of BG4 foci per nucleus in A549 cells treated with or without BMPQ-1. (F) Quantification of the colocalized BG4 and TRF2 per nucleus in A549 cells treated with or without BMPQ-1.

SMILES: Cc1ccc(Cn2cc3c(-c4ccc5c(c4)OCO5)nnc-3c3cc4c(cc32)OCO4)cc1 [BMPQ-1]
- co-localization between γH2AX foci and TRF2: increase on the co-localization between γH2AX foci and TRF2 was observed with statistical significance
- average number of γH2AX foci in individual cells (compared with control): trebled
